Laboratory results taken from the OPERA property sets (Mansouri et al. 2018).

SMILES | boiling point [°C] | melting point [°C] | other results
NNCCO | 219 | -70 | –
COc1ccc(C)c(C)c1 | 202 | – | –
NCc1ccccc1 | 185 | – | log10 vapour pressure (mmHg): -0.185; ready biodegradability: readily biodegradable
O=CN(c1ccccc1)c1ccccc1 | 338 | 73.5 | –
CCN(CC)CCNc1ccc(C)c2sc3ccccc3c(=O)c12.Cl | – | 196 | –
CC=CCCCCCCCCO | 248 | 6 | –
CCCC(=O)C(C)C | 135 | – | –
CCCCCCCCCCCCCC(=O)OC(=O)CCCCCCCCCCCCC | – | 53.4 | –
CN(C)c1ccc(C=O)cc1 | – | 74.5 | log10 vapour pressure (mmHg): -2.43
COC(=O)c1c[nH]c2ccccc12 | – | 150 | –
C | -162 | -182 | log10 Koa: -0.38; log10 vapour pressure (mmHg): 5.67
CCC(CC(C)C)C(C)C (stereo not drawn) | 154 | – | –
C[Si](C)(C)O[Si](C)(C)O[Si](C)(C)O[Si](C)(C)O[Si](C)(C)O[Si](C)(C)C | 246 | -59 | log10 vapour pressure (mmHg): -1.53
CC(C)(C)C(=O)OCOc1ccccc1C(N)=O | – | 95 | –
CCN(CC)c1ccc(/N=N/c2ccccc2)cc1 | – | 97.5 | log10 vapour pressure (mmHg): -7.07
COc1cccc(OC)c1 | 218 | -52 | ready biodegradability: readily biodegradable
CCCCCCOC(=O)CCCCC(=O)OCCCCCC | – | – | log10 vapour pressure (mmHg): -5.54
O=C(O)COc1ccccc1 | 285 | 98.5 | –
CO[Si](CCCN=C(N(C)C)N(C)C)(OC)OC | – | – | ready biodegradability: not readily biodegradable
CC(=O)C(C)(C)O | 140 | – | log10 vapour pressure (mmHg): 0.792
CC=CC(=O)OC(=O)C=CC | 247 | – | –
S=C1NCCS1 | – | 106 | –
CC(C)(C)CCC(C)(C)C | 137 | -12.6 | log10 vapour pressure (mmHg): 0.942

SMILES | boiling point [°C] | melting point [°C] | other results
O=C1OC(=O)c2ccccc21 | 295 | 131 | log10 Koc (L/kg): 1.56; log10 vapour pressure (mmHg): -3.29; ready biodegradability: readily biodegradable
ClCc1ccc(Cl)cc1 | 223 | 31 | –
CNCC(OC)OC | 140 | – | –
COc1ccc(-c2ccc(OC)cc2)cc1 | – | 175 | –
CC(=O)CC(C)(C)N | 180 | – | log10 vapour pressure (mmHg): -0.699
COc1cc2c(cc1O)[C@H](Cc1ccc(O)cc1)NCC2 | – | 220 | –
CCCOP(OCCC)OCCC | 206 | – | –
COc1ccc(C[C@H]2c3cc(OC)c(OC)cc3CCN2C)cc1O | – | 176 | –
CNCCCN | – | – | ready biodegradability: readily biodegradable
CC(C)CN(C)C | 80.5 | – | –
SCCCCS | 196 | -53.9 | –
CCNC(=O)C1CC(C)CCC1C(C)C (stereo not drawn) | – | 88 | –
CC(C)CCCC(=O)O | 216 | – | –
NS(=O)(=O)c1cc2c(cc1C(F)(F)F)NC(Cc1ccccc1)NS2(=O)=O (stereo not drawn) | – | 222 | –
COCC(=O)N(c1c(C)cccc1C)C(C)C(=O)OC (stereo not drawn) | – | – | log10 Koc (L/kg): 1.57; log10 vapour pressure (mmHg): -4.93; ready biodegradability: not readily biodegradable
Nc1ccc(-c2ccc(N)cc2Cl)c(Cl)c1 | – | 165 | –
c1ccc(-c2c3ccccc3nc3ccccc23)cc1 | 404 | 184 | –
N#Cc1ccncc1 | 214 | 79 | log10 Henry constant (atm·m³/mol): -6.03
CC(C)CC(=O)C1C(=O)c2ccccc2C1=O | – | 68.5 | –
CN1CC[C@]23CCCC[C@H]2[C@H]1Cc1ccc(O)cc13 | – | 198 | –
O=C(O)c1cc(I)ccc1O | – | 190 | –
CC(=O)OOC(=O)c1ccccc1 | – | 37 | –
NC12CC3CC(CC(C3)C1)C2 | – | 180 | –

SMILES | boiling point [°C] | melting point [°C] | other results
Cc1cc(C)nc(NS(=O)(=O)c2ccc(N)cc2)n1 | – | 198 | –
O=C(O)CCCCCCCCCCCCC1C=CCC1 (stereo not drawn) | – | 68.5 | –
CC/C=C\CO | 138 | – | –
C=CCC1(C(C)CCC)C(=O)NC(=O)NC1=O (stereo not drawn) | – | 100 | –
Clc1cccc2ccccc12 | 259 | -2.5 | log10 Henry constant (atm·m³/mol): -3.45; log10 Koa: 5.8; log10 vapour pressure (mmHg): -1.54; ready biodegradability: not readily biodegradable
CC(C)CCCN | 125 | -94.4 | –
O=c1[nH]c2ccccc2o1 | 335 | 138 | –
CCCCCCCCCOC(=O)c1ccc(N)cc1 | – | 69 | –
Cc1ccc2c(C)c(C)ccc2c1 | – | 14 | –
CN(C)C(=O)N[C@@H]1C[C@@H]2C[C@H]1[C@@H]1CCC[C@H]21 | – | 177 | –
CCCCC(CC)CCl (stereo not drawn) | 172 | – | log10 vapour pressure (mmHg): 0.0792
CCCCOC(=O)CCl | 183 | – | –
Clc1ccc2cccc(Cl)c2c1 | 286 | 63.5 | –
O=C1NC(=O)C([N+](=O)[O-])C(=O)N1 | – | 180 | –
c1ccc(Cc2ccncc2)cc1 | 288 | 12.4 | –
CCc1cccc(C(C)C)c1 | 192 | – | –
CCCCCC#CC(=O)OC | 218 | – | –
NC(=S)N=C(N)N | – | 172 | –
O=C(O)CCCCCCC[C@H](O)[C@H](O)CCCCCCO | – | 100 | –
C=CCCC(C)(C)C | 104 | – | –
C=CCc1cc2c(c(OC)c1OC)OCO2 | 285 | 29.5 | –
